Measurements as given in patent US11998615B2, “Functionalized nanoparticles and their use in treating bacterial infections” (The Board of Trustees of the Leland Stanford Junior …, priority 2021, dated 2024).
“Also recorded” adds a separate entry of the source.

Experiments:
[1] = test system: intra-macrophage PA (XDR); assay: 24 h intracellular infection model: intra-macrophage PA (XDR) in RAW 264.7 cells; format: cell-based, Pseudomonas aeruginosa; details: MOI 10, 3 μg/mL ciprofloxacin equivalent
Description: FIGS. 5A-5C. […] Data shown reflect mean±SD of three replicates.
However, a critical gap exists in our general understanding of how macrophages respond physiologically to the thiol antioxidant inhibition strategy. Here, we will examine how the thiol antioxidant inhibition strategy (i.e., increased ROS levels) contributes to macrophages killing and intracellular persister cell death.

[2] = test system: ciprofloxacin-induced persister cells from PA (XDR); assay: Eradication of ciprofloxacin-induced persister cells from PA (XDR); format: cell-based, Pseudomonas aeruginosa; details: 3 μg/mL ciprofloxacin equivalent, 24 h in PBS; persisters generated with 600 μg/mL ciprofloxacin
Method: FIGS. 3A-3E. […] Data shown reflect mean±SD of three replicates.
After removing the drugs, the surviving bacteria were enumerated. […] The steady-state level of H2O2 inside the unstressed aerobic bacterial cell has been projected to be about 50 nM (47). […] The H2O2 level was quantified by measuring the area under the curve (AUC) (FIGS. 3B, 3C).

TNF-α = TNF-α secretion by RAW 264.7 cells; format: cell-based, murine; details: 2 μg/mL of ciprofloxacin
[3] = test system: extensively drug-resistant (XDR) PA; assay: Growth inhibition (MIC) of extensively drug-resistant PA; format: cell-based, Pseudomonas aeruginosa; details: for AuNC, concentration of ciprofloxacin within the AuNC
Description: FIGS. 2A-2F. […] PA01 is sensitized (FIGS. 2A-2B). […]. […] Data shown reflect mean±SD of three replicates.
H2O2 contributes causatively to antibiotics lethality (48). H2O2 is generated as a downstream physiological consequence of antibiotics interacting with their traditional targets. […] Thus, the main challenge to reach lethal H2O2 levels in resistant bacteria is to design molecules that inhibit the antioxidant defense mechanisms. […].

## O=C(O)c1cn(C2CC2)c2cc(N3CCNCC3)c(F)cc2c1=O [ciprofloxacin]
[1]
  residual intra-macrophage bacteria (CFU), in words: fails; also recorded: no significant difference
[2]
  eradication of persister cells (in words): fails; also recorded: survival persisters
TNF-α
  average TNF levels: 53.75 ± 2 pg/mL
[3]
  ciprofloxacin concentration that inhibits growth of PA (XDR): > 127.6 µg/mL
